Data from US9737495B2, “Process for obtaining purified pterostilbene and methods of use thereof” (Indus Biotech Private Limited, priority 2009, dated 2017).
Where two headings read alike, the source gives them in different places.

Experiments:
[1] = target: T1, SIRT1 (Homo sapiens, UniProt Q96EB6); assay: SIRT1 inhibition, Fluor de Lys fluorimetric deacetylase assay (in vitro); type: biochemical; conditions: read-out: IC50 for SIRT1 (converted)
T1 sequence (Q96EB6 1-747): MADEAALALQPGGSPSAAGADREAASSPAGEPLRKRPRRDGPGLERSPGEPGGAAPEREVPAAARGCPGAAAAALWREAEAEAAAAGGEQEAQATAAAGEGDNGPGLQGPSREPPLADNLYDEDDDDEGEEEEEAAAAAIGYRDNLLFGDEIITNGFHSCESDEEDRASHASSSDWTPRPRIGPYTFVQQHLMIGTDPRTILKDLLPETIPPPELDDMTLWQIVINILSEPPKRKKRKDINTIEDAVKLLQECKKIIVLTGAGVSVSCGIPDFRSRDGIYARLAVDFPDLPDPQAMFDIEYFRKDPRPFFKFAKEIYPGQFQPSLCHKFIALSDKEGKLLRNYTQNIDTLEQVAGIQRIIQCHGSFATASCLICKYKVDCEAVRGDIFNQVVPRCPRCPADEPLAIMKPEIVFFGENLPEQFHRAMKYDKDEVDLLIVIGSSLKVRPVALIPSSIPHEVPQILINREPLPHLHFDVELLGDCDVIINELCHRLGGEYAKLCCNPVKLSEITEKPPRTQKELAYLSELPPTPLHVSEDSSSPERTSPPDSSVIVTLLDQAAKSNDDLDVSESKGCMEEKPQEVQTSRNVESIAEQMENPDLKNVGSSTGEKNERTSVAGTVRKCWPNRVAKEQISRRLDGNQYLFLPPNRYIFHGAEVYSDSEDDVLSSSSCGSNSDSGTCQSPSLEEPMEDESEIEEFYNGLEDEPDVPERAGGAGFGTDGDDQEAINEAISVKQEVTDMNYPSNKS

[2] = test system: 3-NP induced HD in rats; assay: 3-NP induced HD in rats: brain wet weight; type: in vivo, Wistar rats; conditions: Day 13, 30 mg/kg p.o. + 3-NPA
Description: (§1) 3-NP (20 mg/kg i.p., daily in 2 divided doses) was administered to all the Wistar rats of weight range 250-300 g. in two divided doses at 12 hr interval for 9-11 days until disease is induced (acutely ill). It took 12 days to completely induce the disease symptoms. 3-NP was diluted with water and the pH will be adjusted upto 7.4 with NaOH. It was administered intraperitoneally (i.p.) at a dose of 10 mg/kg every 12 hrs (8:00 am and 8:00 pm) for 12 days (total daily dose 20 mg/kg). The observations were done on day 0, 7, 9, 11 and 13. The test compound was administered for the same period p.o. (per oral) one hour before 3-NP injection (at 7:00 AM daily) at dose of 30 mg/kg, p.o. The experimental groups were as follows: 1) Healthy Control: No treatment 2) HD control (3-NP+cyclodextrin) 3) TEST COMPOUND (30 mg/kg, p.o. daily complexed with cyclodextrin) treated.
On day 13, the brains of the rats were dissected out and cleaned. The wet weight of the brains were recorded for each rat. The results are also graphically represented in FIG. 3
On day 13, the brains of the rats were dissected out and cleaned. The wet weight of the brains were recorded for each rat.

[3] = test system: 3-NP induced HD in rats; assay: 3-NP induced HD in rats: body weight; type: in vivo, Wistar rats; conditions: for % difference of body weights: 30 mg/kg p.o. daily complexed with cyclodextrin + 3-NPA 20 mg/kg/day i.p., n=6
Description: as §1

[4] = test system: 3-NP induced HD in rats; assay: 3-NP induced HD in rats: squares crossed in open field test; type: in vivo, Wistar rats; conditions: 30 mg/kg p.o. + 3-NPA
Description: as §1

[5] = test system: 3-NP induced HD in rats; assay: 3-NP induced HD in rats: neurological behavioral grading; type: in vivo, Wistar rats; conditions: for neurological behavioral changes (neurological problems score, grades 0-5) / neurological score, % change from cyclo + 3-NPA treatment: 30 mg/kg p.o. + 3-NPA
Description: as §1
Behavioral changes were recorded daily, and immediately before sacrifice, graded according to the neurological scale described. A total of 6 grades included: • Grade 0: normal behavior; • Grade 1: general slowness in movement due to mild hind-limb impairment; • Grade 2: prominent gait abnormality with poor coordination; • Grade 3: nearly complete hind-limb paralysis; • Grade 4: incapability to move due to four-limb impairment; and • Grade 5: recumbence.

[6] = target: T2, Human recombinant deacetylase sirtuin SIRT2 (Homo sapiens, UniProt Q8IXJ6); assay: SIRT2 inhibition, Fluor de Lys fluorimetric deacetylase assay (in vitro); type: biochemical; conditions: read-out: IC50 for SIRT2 (converted)
T2 construct: host or cells: E. coli
T2 sequence (Q8IXJ6 1-389): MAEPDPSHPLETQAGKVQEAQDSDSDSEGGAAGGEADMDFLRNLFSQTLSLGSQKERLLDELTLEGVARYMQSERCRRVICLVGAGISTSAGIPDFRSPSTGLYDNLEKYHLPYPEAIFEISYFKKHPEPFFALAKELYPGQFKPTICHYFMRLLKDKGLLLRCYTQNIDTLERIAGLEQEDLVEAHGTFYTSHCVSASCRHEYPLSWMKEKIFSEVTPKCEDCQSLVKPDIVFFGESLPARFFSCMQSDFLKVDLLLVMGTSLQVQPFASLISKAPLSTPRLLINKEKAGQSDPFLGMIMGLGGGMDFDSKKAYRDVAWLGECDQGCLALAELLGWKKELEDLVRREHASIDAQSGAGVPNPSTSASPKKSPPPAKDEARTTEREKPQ
Description: (§2) Human recombinant deacetylase sirtuin SIRT2 expressed in E. coli was used. Test compound (1, 10, 100 and 1000 μg/ml conc.) and/or vehicle was pre-incubated with 2 μg/ml enzyme in Tris-HCl buffer pH 8.0 for 15 minutes at 37° C. The reaction is initiated by addition of 25 μM Fluor de Lys-SIRT1 and 150 μM NAD for another 120 minute incubation period and is terminated by further addition of Fluor de Lys Developer. Determination of the amount of de-acetate Fluor de Lys formed is read spectrofluorimetrically with excitation at 360 nm and emission at 465 nm. The concentration-response (% inhibition) curve was plotted and IC50 was calculated.
as §2, with “37 °C.” for “37° C.”

[7] = test conc. 1-1000 μg/ml, pH 8.0, 37° C.

IC50 ([1]; conversion of the μg/ml value): 47 µM | IC50 [1, 7]: 47.2 µM | IC50 ([6]; conversion of the μg/ml value): 45 µM | IC50 [6, 7]: 45.6 µM
Structure (SMILES): COc1cc(/C=C/c2ccc(O)cc2)cc(OC)c1 [Test compound, pterostilbene]
Brain weight (g)-Mean ± SEM [2]: 1.605 ± 0.0659 g | % difference of body weights ([3]; Day 7): 1.90 ± 3.72% | % difference of body weights ([3]; Day 9): −0.82 ± 3.77% | % difference of body weights ([3]; Day 11): −2.53 ± 3.70% | % difference of body weights ([3]; Day 13): −6.08 ± 4.10% | reduction in body weight ([3]; after 11 days, 30 mg/kg p.o. + 3-NP (3-NP alone 12.48%)): 2.53% | number of squares crossed in open field test ([4]; Day 7): 144.17 ± 7.47 | number of squares crossed in open field test ([4]; Day 9): 125.67 ± 6.22 | number of squares crossed in open field test ([4]; Day 11): 109.00 ± 13.72 | number of squares crossed in open field test ([4]; Day 13): 77.83 ± 6.92 | neurological behavioral changes (neurological problems score, grades 0-5) ([5]; Day 7): 0 | neurological behavioral changes (neurological problems score, grades 0-5) ([5]; Day 9): 1 | neurological score, % change from cyclo + 3-NPA treatment ([5]; Day 9): −83.33% | neurological behavioral changes (neurological problems score, grades 0-5) ([5]; Day 11): 7 | neurological score, % change from cyclo + 3-NPA treatment ([5]; Day 11): −30% | neurological behavioral changes (neurological problems score, grades 0-5) ([5]; Day 13 (after 12-day treatment)): 13 | neurological score, % change from cyclo + 3-NPA treatment ([5]; Day 13): −23.52% | reduction of neurological problems as compared to vehicle (cyclo+3-NPA) group ([5]; after 12-day treatment (Day 13), 30 mg/kg p.o.): 23.52%
